Converted amounts (≈) assume the structure as drawn.
How the values were obtained:
PC9 = experiment: Cell proliferation inhibition (CellTiter-Glo) on cell line PC9; format: cell-based; details: Homo sapiens, PC-9
Procedure: (§1) The cell lines NCI-H1975 and PC9 selected for the experiments were provided by Sino-American Guanke Biotechnology (Beijing) Co. and were validated prior to use in this study.
(§2) A 10× stock of the compound to be tested was prepared for use, with 9 concentrations in 4-fold gradient dilution, diluted from 10 μM.
(§3) The logarithmic growth phase cell suspension was inoculated into a 96-well culture plate with 90 μL volume per well (2000 cells/well). 10 μL of 10× Compound to be tested was added to the plate according to the plate spreading diagram, and then mixed well. The plate was incubated in a 5% CO2 incubator at 37° C. The proliferation inhibitory activity of the compound was determined by the CellTiter-Glo method. Cell proliferation inhibition rate (Inhibition Rate) data were plotted using GraphPad Prism 8.0 software for cell viability curves and IC50 values were calculated.

[1] = tested on: Lung cancer LU0387PDX model; experiment: Pharmacodynamic study on lung cancer LU0387PDX model; format: in vivo, mice; details: LU0387 model; for TGI (%): P.O, QD * 13 days
Description: Lung cancer LU0387PDX model is a commonly used xenograft tumor model from Crown Bioscience, the experimental situation of this model is described as follows: after euthanasia of tumor-bearing mice, the tumor blocks were dissected out in aseptic condition, the blocks were cleaned to remove blood stains and connective tissues and necrotic parts, and the tumors were cut into small pieces of 2*2*2 mm^3, and inoculated with an adapter needle in sterilized experimental mice subcutaneously on the right dorsal side. Tumor growth was regularly observed, and when the tumors grew to an average volume of 100~200 mm^3, mice were randomly grouped according to tumor size and body weight for drug administration. Before the start of drug administration, all animals were weighed and the tumor volume was measured with vernier calipers. Mice were randomly grouped according to tumor volume to ensure that tumor volumes were similar between groups. Three mice in each group were administered orally once daily, and the inoculation site was observed after administration. Tumor volume and mouse body weight were measured twice a week. The experimental design and results were shown in Table 9, wherein P.O referred to administered orally; QD: once a day; TGI (Tumor volume inhibition rate)=(1-Tumor weight of the treatment group/Tumor weight of the control group)*100%.

[2] = tested on: exon 20 insertion mutations in EGFR and HER2; details: reported clinical trial results; cited from earlier work
NCI-H1975 = experiment: Cell proliferation inhibition (CellTiter-Glo) on cell line NCI-H1975; format: cell-based; details: Homo sapiens
Procedure: as §1, §2, §3

[3] = biological target: Ba/F3-HER2-A775-G776 ins YVMA (Homo sapiens, UniProt P04626, DUP772-775, cells depend on it); experiment: Cell proliferation inhibition (CellTiter-Glo), HER2 exon 20 insertion engineered cells; format: cell-based; details: for GI50: 72 h, CellTiter-Glo, read-out: IC50, Ba/F3-HER2-A775-G776ins YVMA
Procedure: (§4) The selected engineering cells Ba/F3-FL-EGFR-V769-D770 ins ASV, Ba/F3-FL-EGFR-D770-N771 ins SVD, Ba/F3-FL-EGFR-H773-V774 ins NPH, Ba/F3-FL-EGFR-A763-Y764 ins FQEA, Ba/F3-HER2-A775-G776 ins YVMA were provided by Hefei PreceDo Biomedical Technology Co., LTD and were validated prior to use in this study.
(§5) A 20× stock of the compound to be tested was prepared for use, with 9 concentrations in 3-fold gradient dilution, diluted from 1 μM.
(§6) The logarithmic growth phase cell suspension was inoculated into 96-well white cell culture plates with 95 μL volume per well (2000 cells/well). 5 μL of 20× Compound to be tested was added to the plate containing 95 μL of cell suspension according to the plate spreading diagram, and then mixed well. The plate was incubated in a 5% CO2 incubator at 37° C. for 72 h. The proliferation inhibition activity of the compounds was determined by the CellTiter-Glo method, and the fluorescence value per well, RLU, was obtained from the SpectraMax Paradigm reading. Inhibition Rate data were processed using the following formula: Inhibition Rate (Inh %)=100−(RLU compound−RLU blank)/(RLU control−RLU blank)*100%. The cell viability corresponding to different concentrations of compounds was calculated in EXCEL, and then GraphPad Prism software was used to plot the cell viability curve and calculate the IC50 value.

[4] = biological target: Ba/F3-FL-EGFR-D770-N771 ins SVD (Homo sapiens, UniProt P00533, DUP768-770, cells depend on it); experiment: Cell proliferation inhibition (CellTiter-Glo), EGFR exon 20 insertion engineered cells; format: cell-based; details: 72 h, read-out: IC50, Ba/F3-FL-EGFR D770-N771ins SVD
Procedure: as §4, §5, §6

[5] = biological target: Ba/F3-FL-EGFR-V769-D770 ins ASV (Homo sapiens, UniProt P00533, DUP767-769, cells depend on it); experiment: as above; format: cell-based; details: 72 h, read-out: IC50, Ba/F3-FL-EGFR V769-D770ins ASV
Procedure: as §4, §5, §6

[6] = biological target: Ba/F3-FL-EGFR-H773-V774 ins NPH (Homo sapiens, UniProt P00533, DUP771-773, cells depend on it); experiment: as above; format: cell-based; details: 72 h, read-out: IC50, Ba/F3-FL-EGFR H773-V774ins NPH
Procedure: as §4, §5, §6

[7] = biological target: Ba/F3-FL-EGFR-A763-Y764 ins FQEA (Homo sapiens, UniProt P00533, INS763FQEA, cells depend on it); experiment: as above; format: cell-based; details: 72 h, read-out: IC50, Ba/F3-FL-EGFR A763-Y764ins FQEA
Procedure: as §4, §5, §6

[8] = Competitive pulping of anhydrous crystalline forms I and V; format: physicochemical; details: saturated acetone and acetonitrile solutions, 25° C. or 50° C.
[9] = Solubility test by visual inspection in 18 solvents; format: physicochemical; details: room temperature
Description: The solubility of the free base crystalline form I of the compound of Example 1 was crudely determined by visual inspection in 18 solvents at room temperature. The free base crystalline form I was only highly soluble in dichloroethane and dichloromethane and poorly soluble in most of the solvents tested.

Grinding experiment = format: physicochemical
[10] = Stability experiment (left open, XRPD and liquid chromatography); format: physicochemical; details: left open at 80° C. 3 days, 60° C. 7 days, 25° C./60% RH 7 days, 40° C./75% RH 7 days, 25° C./90±5% RH 7 days
Procedure: In the stability experiment, when the free base crystalline form I was left open at 80° C. for 3 days, 60° C. for 7 days, 25° C./60% RH for 7 days, 40° C./75% RH for 7 days, and 25° C./90±5% RH for 7 days, the samples were taken for XRPD detection, respectively.

[11] = Tablet pressing experiment; format: physicochemical; details: pressure 30 MPa
[12] = Dynamic water vapor adsorption (DVS) test; format: physicochemical
[13] = tested on: Ba/F3 EGFR D770_N771 ins SVD; experiment: In vivo pharmacodynamic study, Ba/F3-EGFR-D770_N771 ins SVD subcutaneous xenograft model; design: species or system nude mice; details: 30 mg/kg, P.O, QD * 14 days
Procedure: The experimental design and results were shown in Table 9, wherein P.O referred to administered orally; QD: once a day; TGI (Tumor volume inhibition rate)=(1-Tumor weight of the treatment group/Tumor weight of the control group)*100%. The cell line Ba/F3 EGFR D770_N771 ins SVD was cultured in 37° C., 5% CO2 with RPMI1640+10% fetal bovine serum+1% double antibody, and passaged 2-3 times a week. When the cell saturation was 80-90% and the number of cells met the requirement, the cells were collected. 0.2 mL (1*10^6) cells were subcutaneously inoculated into the right back of 6-8 weeks old female nude mice weighing 18-22 g. When the average tumor volume reached approximately 150-200 mm^3, grouping and drug administration started. Before the start of drug administration, all animals were weighed and the tumor volume was measured with vernier calipers. Mice were randomly grouped according to tumor volume to ensure that tumor volumes were similar between groups. Three mice in each group were administered orally once daily, and the inoculation site was observed after administration. Tumor volume and mouse body weight were measured twice a week.

EGFR exon 20ins = details: advanced non-small cell lung cancer; cited from earlier work

Chain of Ba/F3-FL-EGFR-A763-Y764 ins FQEA (P00533 with tags, fused parts or gaps INS763FQEA): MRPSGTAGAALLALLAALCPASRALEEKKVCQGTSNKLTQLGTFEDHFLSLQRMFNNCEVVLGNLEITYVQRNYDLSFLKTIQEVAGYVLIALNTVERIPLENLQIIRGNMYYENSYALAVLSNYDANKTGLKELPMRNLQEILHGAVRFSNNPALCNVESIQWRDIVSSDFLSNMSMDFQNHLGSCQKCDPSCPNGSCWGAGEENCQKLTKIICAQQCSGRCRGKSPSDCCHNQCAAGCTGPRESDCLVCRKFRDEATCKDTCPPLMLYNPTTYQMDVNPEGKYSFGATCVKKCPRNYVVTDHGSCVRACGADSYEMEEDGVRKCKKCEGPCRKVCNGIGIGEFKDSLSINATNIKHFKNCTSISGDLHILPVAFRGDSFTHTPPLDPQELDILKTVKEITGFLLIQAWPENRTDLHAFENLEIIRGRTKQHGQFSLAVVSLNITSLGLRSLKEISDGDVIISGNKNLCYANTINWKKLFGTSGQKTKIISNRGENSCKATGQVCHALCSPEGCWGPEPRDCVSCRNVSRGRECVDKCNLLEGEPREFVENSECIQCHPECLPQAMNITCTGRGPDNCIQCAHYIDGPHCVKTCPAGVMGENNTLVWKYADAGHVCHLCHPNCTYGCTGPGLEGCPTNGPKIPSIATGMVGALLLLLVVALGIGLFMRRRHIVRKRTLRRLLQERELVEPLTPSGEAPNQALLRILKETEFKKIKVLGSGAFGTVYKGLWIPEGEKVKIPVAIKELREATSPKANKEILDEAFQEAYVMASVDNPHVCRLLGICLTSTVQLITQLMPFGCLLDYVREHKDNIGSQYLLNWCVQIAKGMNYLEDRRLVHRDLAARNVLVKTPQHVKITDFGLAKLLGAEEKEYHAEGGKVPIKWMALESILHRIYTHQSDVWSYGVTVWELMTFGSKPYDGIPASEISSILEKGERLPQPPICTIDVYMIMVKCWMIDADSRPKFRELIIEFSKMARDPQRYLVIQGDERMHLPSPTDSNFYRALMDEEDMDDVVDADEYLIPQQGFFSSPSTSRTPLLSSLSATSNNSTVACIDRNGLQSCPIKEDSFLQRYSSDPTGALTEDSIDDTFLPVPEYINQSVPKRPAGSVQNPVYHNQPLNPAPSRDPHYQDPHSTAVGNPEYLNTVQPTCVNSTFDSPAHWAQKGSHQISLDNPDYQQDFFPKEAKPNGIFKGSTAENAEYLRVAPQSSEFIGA
Chain of Ba/F3-FL-EGFR-H773-V774 ins NPH (P00533 with tags, fused parts or gaps DUP771-773): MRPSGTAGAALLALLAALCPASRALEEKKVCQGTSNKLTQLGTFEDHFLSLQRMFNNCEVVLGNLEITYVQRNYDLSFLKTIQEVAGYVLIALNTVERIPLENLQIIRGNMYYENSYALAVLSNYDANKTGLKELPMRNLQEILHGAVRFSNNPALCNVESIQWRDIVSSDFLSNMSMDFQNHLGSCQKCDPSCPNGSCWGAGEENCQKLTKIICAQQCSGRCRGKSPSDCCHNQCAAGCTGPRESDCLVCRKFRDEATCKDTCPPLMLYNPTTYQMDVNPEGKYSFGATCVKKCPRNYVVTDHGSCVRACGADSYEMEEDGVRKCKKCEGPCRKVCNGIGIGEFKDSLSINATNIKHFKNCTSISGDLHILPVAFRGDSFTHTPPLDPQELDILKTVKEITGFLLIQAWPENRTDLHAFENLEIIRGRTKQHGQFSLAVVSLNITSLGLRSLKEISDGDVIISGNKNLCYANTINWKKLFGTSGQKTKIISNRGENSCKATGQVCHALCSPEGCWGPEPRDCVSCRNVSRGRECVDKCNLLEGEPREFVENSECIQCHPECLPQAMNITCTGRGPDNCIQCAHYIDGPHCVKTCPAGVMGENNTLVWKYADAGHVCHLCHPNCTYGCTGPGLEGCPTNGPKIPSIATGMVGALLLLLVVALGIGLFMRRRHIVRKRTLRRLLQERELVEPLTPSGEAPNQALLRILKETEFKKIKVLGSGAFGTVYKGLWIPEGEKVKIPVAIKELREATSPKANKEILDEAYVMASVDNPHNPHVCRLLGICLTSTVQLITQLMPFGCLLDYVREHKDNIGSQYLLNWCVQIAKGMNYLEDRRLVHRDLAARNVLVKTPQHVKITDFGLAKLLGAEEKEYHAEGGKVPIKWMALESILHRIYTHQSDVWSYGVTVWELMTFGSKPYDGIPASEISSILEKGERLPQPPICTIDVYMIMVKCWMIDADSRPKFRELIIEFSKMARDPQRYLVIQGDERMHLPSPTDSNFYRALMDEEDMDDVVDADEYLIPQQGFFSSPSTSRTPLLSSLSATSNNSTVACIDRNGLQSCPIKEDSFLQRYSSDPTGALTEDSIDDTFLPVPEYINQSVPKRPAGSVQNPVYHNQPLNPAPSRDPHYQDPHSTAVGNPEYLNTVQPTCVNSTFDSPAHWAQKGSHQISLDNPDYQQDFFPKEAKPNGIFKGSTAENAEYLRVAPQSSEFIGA
Chain of Ba/F3-FL-EGFR-V769-D770 ins ASV (P00533 with tags, fused parts or gaps DUP767-769): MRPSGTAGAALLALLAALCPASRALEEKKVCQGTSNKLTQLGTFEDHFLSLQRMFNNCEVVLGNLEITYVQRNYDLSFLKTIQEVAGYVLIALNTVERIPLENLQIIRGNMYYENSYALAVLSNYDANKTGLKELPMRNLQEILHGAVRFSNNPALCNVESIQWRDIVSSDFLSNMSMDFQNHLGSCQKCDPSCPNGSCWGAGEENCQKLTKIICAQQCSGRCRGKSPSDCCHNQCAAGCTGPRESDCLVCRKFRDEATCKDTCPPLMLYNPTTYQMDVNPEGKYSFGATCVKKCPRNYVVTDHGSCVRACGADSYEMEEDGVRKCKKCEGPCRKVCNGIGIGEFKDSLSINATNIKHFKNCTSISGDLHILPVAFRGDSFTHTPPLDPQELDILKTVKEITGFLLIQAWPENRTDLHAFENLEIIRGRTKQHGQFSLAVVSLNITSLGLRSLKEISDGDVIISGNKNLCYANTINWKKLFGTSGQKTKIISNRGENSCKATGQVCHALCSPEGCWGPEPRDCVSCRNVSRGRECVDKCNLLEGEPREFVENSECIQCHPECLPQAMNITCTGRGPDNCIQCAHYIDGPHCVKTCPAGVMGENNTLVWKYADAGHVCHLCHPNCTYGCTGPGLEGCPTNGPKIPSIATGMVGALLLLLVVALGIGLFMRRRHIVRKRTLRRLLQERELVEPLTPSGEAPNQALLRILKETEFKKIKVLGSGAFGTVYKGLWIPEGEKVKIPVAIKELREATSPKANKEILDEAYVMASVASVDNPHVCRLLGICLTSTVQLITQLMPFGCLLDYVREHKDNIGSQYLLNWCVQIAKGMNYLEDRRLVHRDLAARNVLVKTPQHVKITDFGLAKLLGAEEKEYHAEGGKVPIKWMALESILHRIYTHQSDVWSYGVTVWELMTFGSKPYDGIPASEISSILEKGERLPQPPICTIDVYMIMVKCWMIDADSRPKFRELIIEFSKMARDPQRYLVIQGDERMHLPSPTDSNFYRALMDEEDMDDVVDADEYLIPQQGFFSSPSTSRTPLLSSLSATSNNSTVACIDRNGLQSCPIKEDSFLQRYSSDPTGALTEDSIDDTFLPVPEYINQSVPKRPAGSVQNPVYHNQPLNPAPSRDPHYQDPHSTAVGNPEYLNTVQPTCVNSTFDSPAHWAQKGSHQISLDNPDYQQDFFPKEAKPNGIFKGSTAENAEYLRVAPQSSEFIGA
Chain of Ba/F3-HER2-A775-G776 ins YVMA (P04626 with tags, fused parts or gaps DUP772-775): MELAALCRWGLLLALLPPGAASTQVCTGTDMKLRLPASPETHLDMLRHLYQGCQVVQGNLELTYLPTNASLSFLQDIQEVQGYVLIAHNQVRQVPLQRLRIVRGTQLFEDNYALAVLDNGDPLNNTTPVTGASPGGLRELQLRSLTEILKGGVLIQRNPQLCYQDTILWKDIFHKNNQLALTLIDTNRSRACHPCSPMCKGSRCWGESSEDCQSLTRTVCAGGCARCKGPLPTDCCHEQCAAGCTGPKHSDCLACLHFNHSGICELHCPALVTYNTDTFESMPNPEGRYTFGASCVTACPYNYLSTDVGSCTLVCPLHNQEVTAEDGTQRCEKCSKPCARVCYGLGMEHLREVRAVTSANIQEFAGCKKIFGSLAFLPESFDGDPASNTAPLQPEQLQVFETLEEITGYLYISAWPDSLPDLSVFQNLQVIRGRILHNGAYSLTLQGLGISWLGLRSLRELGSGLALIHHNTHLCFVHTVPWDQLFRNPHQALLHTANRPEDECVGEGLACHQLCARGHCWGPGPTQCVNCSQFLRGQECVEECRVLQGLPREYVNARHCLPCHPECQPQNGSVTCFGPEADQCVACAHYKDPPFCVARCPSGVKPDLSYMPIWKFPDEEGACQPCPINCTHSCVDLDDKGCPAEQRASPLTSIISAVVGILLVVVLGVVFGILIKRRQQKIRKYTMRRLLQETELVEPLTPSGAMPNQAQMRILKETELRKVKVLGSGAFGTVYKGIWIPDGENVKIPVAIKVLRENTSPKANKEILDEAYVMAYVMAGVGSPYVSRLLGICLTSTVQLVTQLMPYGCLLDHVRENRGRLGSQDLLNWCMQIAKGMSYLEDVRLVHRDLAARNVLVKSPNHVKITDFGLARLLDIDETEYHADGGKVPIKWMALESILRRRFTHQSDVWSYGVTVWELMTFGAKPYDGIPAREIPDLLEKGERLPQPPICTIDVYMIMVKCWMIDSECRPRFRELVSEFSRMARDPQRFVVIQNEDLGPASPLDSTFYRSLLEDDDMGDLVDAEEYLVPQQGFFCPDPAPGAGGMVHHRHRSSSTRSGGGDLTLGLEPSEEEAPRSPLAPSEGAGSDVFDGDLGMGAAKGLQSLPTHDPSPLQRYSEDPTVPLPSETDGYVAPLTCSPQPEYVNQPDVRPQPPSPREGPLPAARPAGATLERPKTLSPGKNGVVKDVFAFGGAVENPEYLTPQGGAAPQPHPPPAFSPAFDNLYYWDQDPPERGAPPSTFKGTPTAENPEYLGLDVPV

C=CC(=O)Nc1cc(Nc2ncc(C(=O)OC(C)C)c(-c3cn(C)c4ccccc34)n2)c(OC)cc1N(C)CCN(C)C [TAK-788, reference compound]
IC50 (PC9): ≤ 30 nM | TGI (%) ([1]; 30 mg/kg): 68.03% | objective remission rate [2]: 43% | IC50 (NCI-H1975): ≤ 30 nM | GI50 [3]: ≤ 30 nM | GI50 [4]: ≤ 30 nM | GI50 [5]: ≤ 30 nM | GI50 [6]: ≤ 30 nM | GI50 [7]: ≤ 30 nM

C=CC(=O)Nc1cc(Nc2ncc(C(=O)OC(C)C)c(-c3cn(C)c4ccccc34)n2)c(OC)cc1N(C)[C@@H]1[C@@H]2CN(C)C[C@@H]21 [free base crystalline form I]
thermodynamic stability versus free base crystalline form V [8]: thermodynamically stable crystalline form | solubility ([9]; organic solvent or mixture, thermodynamic from solid, 1,4-dioxane): < 270 µg/mL | solubility ([9]; organic solvent or mixture, thermodynamic from solid, Acetone): 2220 to 4440 µg/mL (≈ 3.64 to 7.28 mM) | solubility ([9]; organic solvent or mixture, thermodynamic from solid, Acetonitrile): 930 to 1010 µg/mL (≈ 1.53 to 1.66 mM) | solubility ([9]; organic solvent or mixture, thermodynamic from solid, Butanone): 2780 to 4440 µg/mL (≈ 4.56 to 7.28 mM) | solubility ([9]; organic solvent or mixture, thermodynamic from solid, Cyclohexane): < 330 µg/mL | solubility ([9]; organic solvent or mixture, thermodynamic from solid, Dichloroethane): 61800 to 124000 µg/mL (≈ 101 to 203 mM) | solubility ([9]; organic solvent or mixture, thermodynamic from solid, Dichloromethane): > 107000 µg/mL | solubility ([9]; organic solvent or mixture, thermodynamic from solid, Dimethylsulfoxide): 2600 to 2930 µg/mL (≈ 4.26 to 4.81 mM) | solubility ([9]; organic solvent or mixture, thermodynamic from solid, Ethanol): < 300 µg/mL | solubility ([9]; organic solvent or mixture, thermodynamic from solid, Ethyl acetate): < 290 µg/mL | solubility ([9]; organic solvent or mixture, thermodynamic from solid, Isopropanol): < 350 µg/mL | solubility ([9]; organic solvent or mixture, thermodynamic from solid, Isopropyl acetate): < 300 µg/mL | solubility ([9]; organic solvent or mixture, thermodynamic from solid, Methanol): < 400 µg/mL | solubility ([9]; organic solvent or mixture, thermodynamic from solid, N-Methyl pyrrolidone): 18200 to 27400 µg/mL (≈ 29.9 to 44.9 mM) | solubility ([9]; organic solvent or mixture, thermodynamic from solid, Tert-butyl methyl ether): < 330 µg/mL | solubility ([9]; organic solvent or mixture, thermodynamic from solid, Tetrahydrofuran): 2550 to 3190 µg/mL (≈ 4.18 to 5.23 mM) | solubility ([9]; organic solvent or mixture, thermodynamic from solid, n-Heptane): < 300 µg/mL | solubility ([9]; thermodynamic from solid, Water): < 270 µg/mL | solid form after dry grinding (Grinding experiment; 5 min of dry grinding): transformed into amorphous state | crystallinity after wet grinding with ethanol (Grinding experiment; 5 min of wet grinding with ethanol): slight decrease in crystallinity | crystallinity after wet grinding with water (Grinding experiment; 5 min of wet grinding with water): no significant change in crystallinity | stability, change in liquid chromatography results [10]: no change | stability, change of crystalline form by XRPD [10]: no significant change | crystallinity after tablet pressing [11]: crystallinity slightly decreased | hygroscopicity [12]: slightly hygroscopic | weight gain by water absorption ([12]; at 80% RH): 0.66%

C=CC(=O)Nc1cc(Nc2ncc(-c3nnc(C)o3)c(-c3cn(C)c4ccccc34)n2)c(OC)cc1N(C)[C@@H]1[C@@H]2CN(C)C[C@@H]21 [Example 5]
IC50 (PC9): ≤ 30 nM | TGI (%) ([1]; 30 mg/kg): 66.90% | IC50 (NCI-H1975): ≤ 30 nM | GI50 [3]: ≤ 30 nM | cellular activity against HER2 exon 20 insertion mutations compared with controls ([3]; Table 7): comparable to that of TAK-788 and superior to that of DZD9008 | TGI (%) [13]: 59.51% | GI50 [4]: ≤ 30 nM | GI50 [5]: ≤ 30 nM | GI50 [6]: ≤ 30 nM | GI50 [7]: ≤ 30 nM

C=CC(=O)Nc1cc(Nc2nccc(Nc3cc(Cl)c(F)cc3C(C)(C)O)n2)c(OC)cc1N1CC[C@@H](N(C)C)C1 [DZD9008, reference compound]
IC50 (PC9): 30 to 100 nM | TGI (%) ([1]; 30 mg/kg): 32.55% | IC50 (NCI-H1975): ≤ 30 nM | GI50 [3]: 30 to 100 nM | GI50 [4]: 30 to 100 nM | GI50 [5]: ≤ 30 nM | GI50 [6]: 30 to 100 nM | GI50 [7]: ≤ 30 nM | objective remission rate (EGFR exon 20ins): 40%

C=CC(=O)Nc1cc(Nc2ncc(C(=O)OC(C)C)c(-c3cn(C)c4ccccc34)n2)c(OC)cc1N(C)[C@@H]1[C@@H]2CN(C)C[C@@H]21 [Example 1]
IC50 (PC9): ≤ 30 nM | TGI (%) ([1]; 30 mg/kg): 79.01% | TGI (%) ([1]; 50 mg/kg): 97.44% | efficacy compared with controls (FIG. 1, tumor volume) ([1]; same dose): superior to that of TAK-788 and DZD9008 | IC50 (NCI-H1975): ≤ 30 nM | GI50 [3]: ≤ 30 nM | TGI (%) [13]: 61.08% | GI50 [4]: ≤ 30 nM | GI50 [5]: ≤ 30 nM | GI50 [6]: ≤ 30 nM | GI50 [7]: ≤ 30 nM
